Columns and labels:
[1] = test system: Daoy; assay: Cytotoxicity against human DaOY cells assessed as reduction in cell viability after 72 hrs by CellTiter-blue assay; type: functional, cell-based
[2] = test system: HepG2; assay: Cytotoxicity against human HepG2 cells assessed as reduction in cell viability after 72 hrs by CellTiter-blue assay; type: functional, cell-based; details: HepG2, 72 h
[3] = test system: MCF7; assay: Cytotoxicity against human MCF7 cells assessed as reduction in cell viability after 72 hrs by CellTiter-blue assay; type: functional, cell-based; details: MCF7, 72 h
[4] = target: T1, Protein arginine N-methyltransferase 1 (Homo sapiens, UniProt Q99873); assay: (§1) Inhibition of recombinant human N-terminal GST-tagged PRMT1 (2 to end residues) expressed in baculovirus infected Sf9 insect cells at 9 uM using biotinylated histone H4 peptide as substrate preincubated for 15 mins followed by substrate/[3H]-SAM addition measured after 60 mins by microbeta liquid scintillation counting analysis
Target sequence in this assay (Q99873 whole entry, looked up): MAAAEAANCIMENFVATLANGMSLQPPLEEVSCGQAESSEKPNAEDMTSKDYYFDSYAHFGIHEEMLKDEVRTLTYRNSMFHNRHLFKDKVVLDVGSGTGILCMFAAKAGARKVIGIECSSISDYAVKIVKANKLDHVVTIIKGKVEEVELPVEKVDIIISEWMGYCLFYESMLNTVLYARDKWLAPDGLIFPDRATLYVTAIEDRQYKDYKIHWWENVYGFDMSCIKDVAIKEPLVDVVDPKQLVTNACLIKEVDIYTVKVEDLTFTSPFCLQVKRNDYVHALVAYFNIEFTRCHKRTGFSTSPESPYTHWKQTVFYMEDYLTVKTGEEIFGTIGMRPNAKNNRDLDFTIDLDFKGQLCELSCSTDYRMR

[5] = target: T1, Protein arginine N-methyltransferase 1; assay: Potency index, ratio of AMI-1 IC50 to compound IC50 for recombinant human N-terminal GST-tagged PRMT1 (2 to end residues) expressed in baculovirus infected Sf9 insect cells
Target sequence in this assay (Q99873 whole entry, looked up): as above

[6] = target: T1, Protein arginine N-methyltransferase 1; assay: as §1, with “cells” for “cells at 9 uM”
Target sequence in this assay (Q99873 whole entry): as the sequence (Q99873 whole entry, looked up) above

O=C(Nc1ccc2c(O)cc(S(=O)(=O)O)cc2c1)Nc1ccc2c(O)cc(S(=O)(=O)O)cc2c1
IC50 [1]: > 100 µM | IC50 [2]: 51.2 µM | IC50 [3]: > 100 µM

CN(CCN)Cc1ccc(-c2ccc(OC(F)(F)F)cc2)o1
inhibition [4]: 25%

CNCCN(C)Cc1ccc(-c2ccc(C(F)(F)F)cc2)o1
inhibition [4]: 43% | IC50 [1]: 72.8 µM | Ratio IC50 [5]: 3 | IC50 [6]: 8.2 µM | IC50 [2]: 36.4 µM | IC50 [3]: 49.8 µM

CNCCN(C)Cc1ccc(-c2cccc(C#N)c2)o1
inhibition [4]: 33%

CN(CCN)Cc1ccc(-c2cccc(C(F)(F)F)c2)o1
inhibition [4]: 31%

CN(CCN)Cc1ccc(-c2cccc(OC(F)(F)F)c2)o1
inhibition [4]: 46% | IC50 [1]: > 100 µM | IC50 [6]: 14 µM | IC50 [2]: > 100 µM | IC50 [3]: > 100 µM

CNCCN(C)Cc1ccc(-c2cccc(OC)c2)o1
inhibition [4]: 37%

CNCCN(C)c1nnnn1Cc1ccc(OC)cc1
inhibition [4]: 0%

COc1cccc(-c2ccc(CN(C)CCN)o2)c1
inhibition [4]: 24%

CNCCN(C)c1nnnn1Cc1ccc(C#N)cc1
inhibition [4]: 6%

CNCCN(C)Cc1ccc(-c2cccc(OC(F)(F)F)c2)o1
inhibition [4]: 41% | IC50 [1]: 23.6 µM | IC50 [6]: 14 µM | IC50 [2]: 23 µM | IC50 [3]: 64.4 µM

CNCCN(C)c1nnnn1Cc1ccccc1OC(F)(F)F
inhibition [4]: 9%

COC(=O)c1ccc(-c2ccc(CN(C)CCN)o2)cc1
inhibition [4]: 30%

CN(CCN)Cc1ccc(-c2ccc(C(F)(F)F)cc2)o1
inhibition [4]: 37%

FC(F)(F)c1cccc(Cn2nnnc2N2CCNCC2)c1
inhibition [4]: 1%

CNCCN(C)c1nnnn1Cc1cccc(OC(F)(F)F)c1
inhibition [4]: 12%

CNCCN(C)c1nnnn1Cc1ccccc1C(F)(F)F
inhibition [4]: 13%

CNCCN(C)c1nnnn1Cc1ccc(OC(F)(F)F)cc1
inhibition [4]: 5%

CNCCN(C)Cc1ccc(-c2ccc(C(=O)OC)cc2)o1
inhibition [4]: 32%

Nc1ncnc2c1ncn2[C@@H]1O[C@H](CSCC[C@H](N)C(=O)O)[C@@H](O)[C@H]1O
inhibition [4]: 90%

CNCCN(C)c1nnnn1Cc1cccc(C(F)(F)F)c1
inhibition [4]: 8%

CNCCN(C)Cc1ccc(-c2ccc(OC)cc2)o1
inhibition [4]: 38%

CNCCN(C)Cc1ccc(-c2ccc(C#N)cc2)o1
inhibition [4]: 35%

CN(CCN)Cc1ccc(-c2cccc(C#N)c2)o1
inhibition [4]: 38%

COc1ccc(-c2ccc(CN(C)CCN)o2)cc1
inhibition [4]: 25%

CNCCN(C)Cc1ccc(-c2ccc(OC(F)(F)F)cc2)o1
inhibition [4]: 40% | IC50 [1]: 24.3 µM | IC50 [6]: 17 µM | IC50 [2]: 24.2 µM | IC50 [3]: 30.6 µM

COC(=O)c1cccc(-c2ccc(CN(C)CCN)o2)c1
inhibition [4]: 38%

CNCCN(C)Cc1ccc(-c2cccc(C(F)(F)F)c2)o1
inhibition [4]: 43% | IC50 [1]: 69.8 µM | IC50 [6]: 14 µM | IC50 [2]: 34.5 µM | IC50 [3]: 61.1 µM

CNCCN(C)Cc1ccc(-c2cccc(C(=O)OC)c2)o1
inhibition [4]: 51% | IC50 [1]: 71.2 µM | IC50 [6]: 14 µM | IC50 [2]: 74.1 µM | IC50 [3]: > 100 µM

CNCCN(C)c1nnnn1Cc1ccc(C(F)(F)F)cc1
inhibition [4]: 2%

Source: ChEMBL document CHEMBL4043236, “Design and synthesis of novel PRMT1 inhibitors and investigation of their binding preferences using molecular modelling” (Bioorg Med Chem Lett, 2017)
